As a reminder, the inhibition is the relative decrease from the control value, in per cent. In general, IC50 refers to the midpoint of a concentration-inhibition curve. Read a low IC50 as inhibition by little substance. A word on the Ki: it is the dissociation constant of the complex between target and ligand, obtained from inhibition or displacement.

Structures are written as SMILES. Where a name gives a salt, the structure may show the parent alone.

In data set [1] the test system is primary culture of murine cortical neurons. Nature of the data set: Neurocytotoxicity, XTT cell survival test. The class given is cell-based. The following applies: for % cell survival: 48 h. The method, then:
FIG. 1: Evaluation of the neurocytotoxicity of the compounds 1 (comparative), 2 and 4 (according to the invention). The percentage cell survival was determined by measuring the absorbance at 485 nm for each concentration compared with the controls treated only with complete medium (positive control) or 20% DMSO (negative control). Each concentration was tested in quadruplicate. The neurons were taken from the stage E16 embryos of Swiss females. The cells are seeded at a density of 50 000 cells/well in precoated sterile transparent 96-well plates. The cells are cultured for 48 h in DMEM medium supplemented with 10% fetal calf serum (FCS), penicillin, streptomycin, N2 and B27, at 37° C. under a humid atmosphere with 5% CO2. The cells are then placed in the presence of the compounds described above (10, 25 or 50 μM) or of the DMSO control, and then incubated for 48 h. The medium is then replaced with 100 μl of XTT (0.3 mg·ml^−1) in order to carry out the cell viability test. […] The activity of the mitochondria is determined by measuring the absorbance at 485 nm. The percentage cell survival is calculated by the ratio of the absorbance in the presence of the inhibitor relative to the control condition (DMSO). The molecule is considered to be cytotoxic when the percentage cell survival is less than 80%.
(Tetrazolium dyes change colour on reduction, which living cells bring about.)

The target in a further data set is KLK1 (Homo sapiens (Human), UniProt P06870). Nature of the data set: KLK1 enzymatic inhibition test (Boc-PFR-AMC). In kind it is biochemical. As to conditions: for inhibition at 10 µM: KLK1 1.6 nM, Boc-PFR-AMC 100 μM, 15 min at 37° C., compound 10 μM; for IC50: KLK1, Boc-PFR-AMC, ni = non-inhibitor. The method, then:
The molecules were tested in order to evaluate their possible inhibitory effect on the enzymatic activity of KLK1. […] The results are presented in Table 4 below; all the inhibitors are reversible.

The target in a further data set is KLK6 (Homo sapiens (Human), UniProt Q92876). Nature of the data set: KLK6 enzymatic inhibition test (fluorogenic/FRET peptide substrates). As to conditions: for inhibition at 10 µM: read-out: % Inhibition at 10 μM.
For another data set, the target named is plasmin (Homo sapiens (Human), UniProt P00747). Nature of the data set: Plasmin enzymatic inhibition test (Boc-QAR-AMC / PAR4 FRET substrate). As to conditions: for inhibition at 10 µM: read-out: % Inhibition at 10 μM.
Chain of plasmin (P00747 581-810 limits assumed): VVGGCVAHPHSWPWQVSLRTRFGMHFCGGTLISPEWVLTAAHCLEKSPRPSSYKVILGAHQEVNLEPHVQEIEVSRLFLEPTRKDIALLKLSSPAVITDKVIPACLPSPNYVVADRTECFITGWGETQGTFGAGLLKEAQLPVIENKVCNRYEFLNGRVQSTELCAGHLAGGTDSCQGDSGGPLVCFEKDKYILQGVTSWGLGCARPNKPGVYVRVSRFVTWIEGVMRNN
Chain of plasmin (P00747 97-580 partner limits assumed): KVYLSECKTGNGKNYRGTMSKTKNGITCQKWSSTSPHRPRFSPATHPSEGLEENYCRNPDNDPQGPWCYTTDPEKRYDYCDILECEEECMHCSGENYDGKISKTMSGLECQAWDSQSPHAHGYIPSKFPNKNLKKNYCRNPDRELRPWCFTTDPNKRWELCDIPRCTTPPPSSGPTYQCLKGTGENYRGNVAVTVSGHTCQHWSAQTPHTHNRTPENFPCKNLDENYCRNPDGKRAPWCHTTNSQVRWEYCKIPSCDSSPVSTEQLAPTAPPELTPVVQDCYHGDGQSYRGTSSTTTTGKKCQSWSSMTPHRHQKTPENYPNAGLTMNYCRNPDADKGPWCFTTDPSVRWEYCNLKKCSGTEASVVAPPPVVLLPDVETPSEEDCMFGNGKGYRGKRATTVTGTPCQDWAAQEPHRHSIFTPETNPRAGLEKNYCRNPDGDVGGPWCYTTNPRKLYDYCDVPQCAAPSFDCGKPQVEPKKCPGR
The test system of data set [2] is CG4 cell line (rat oligodendrocyte precursor cells), GFP/mCherry. Nature of the data set: Cytotoxicity on GFP/mCherry oligodendrocyte line (Hoechst staining). The class given is cell-based. As to conditions: 72 h. The method, then:
FIGS. 2 and 3: Evaluation of the cytotoxicity of the compounds 2 and 3 on the GFP/-mCherry oligodendrocyte line. The cell survival was evaluated by measuring the fluorescence intensity of the Hoechst staining compared with the basal control (TB). Each concentration was tested in quadruplicate. Statistics: Mann-Whitney test (p value=0.019). […] Legend—TB: basal control, T+: positive control (9-cis-retinoic acid). The line used is a CG4 cell line, said cell line being rat oligodendrocyte precursor cells (OPCs), and doubly transduced with the GFP gene under the control of the CMV promoter and the mCherry marker gene under the control of a promoter specific for differentiated and mature oligodendrocytes. The mCherry marker is expressed only at the differentiated oligodendrocyte stage and thus makes it possible to test compounds capable of inducing OPC differentiation. The cells were also stained with Hoechst in order to evaluate their viability. The cells are cultured in the proliferation medium described by Louis et al. (Louis et al., J Neurosci Res. 1992 January; 31(1):193-204) during their seeding, and then transferred into a differentiation medium (DMEM/F12, B27, N1, biotin, laminin). The cells are treated with various concentrations of inhibitor for 72 h in 96-well plates, then screened by means of an automated inverted microscope. The experimental controls used are a basal control containing only the differentiation medium and a positive control, 9-cis-retinoic acid, which is known for its effect in inducing OPC differentiation (Huang et al., Nature Neuroscience 14, 45-53 (2011)). Firstly, the cytotoxicity of the compounds is evaluated by virtue of the comparison of the intensity of the Hoechst staining for each experimental condition with respect to the basal control.

The mark [3] stands for this setting: plasmin, FRET substrate PAR4, ni = non-inhibitor.

Chain of KLK1 (P06870 25-262): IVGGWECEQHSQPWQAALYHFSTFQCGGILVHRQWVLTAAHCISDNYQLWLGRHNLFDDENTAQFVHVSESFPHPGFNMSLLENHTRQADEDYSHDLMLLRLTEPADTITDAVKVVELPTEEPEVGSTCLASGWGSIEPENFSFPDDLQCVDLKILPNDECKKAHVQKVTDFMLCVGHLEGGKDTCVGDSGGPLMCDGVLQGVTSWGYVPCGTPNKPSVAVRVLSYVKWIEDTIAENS

Turning to `CC(C)(C)c1ccc(O)c(C(=O)Nc2ccc(CN)cc2)c1.Cl` [Compound 1, N-(4-(Aminomethyl)phenyl)-5-tert-butyl-2-hydroxybenzamide hydrochloride, reference compound], the “% cell survival” value in data set [1] (10 μM) is over 80%. The Neurocytotoxicity entry in data set [1] (10, 25 and 50 μM) is “dose-dependent effect”. Moreover, the figures for the inhibition at 10 µM against KLK1, on KLK6 and on plasmin were 32.8%, 51% and 39.3%, respectively. Also, the IC50 result against KLK1 was “ni”; on KLK6 (KLK6, FRET substrate MBP3), 39.8 µM; against KLK6 (KLK6, FRET substrate PAR2), 21.7 µM; at KLK6 (KLK6, substrate Boc-QAR-AMC), 9.06 µM; on plasmin (setting [3]), “ni”; against plasmin (plasmin, substrate Boc-QAR-AMC), 17.1 µM. Besides, the Inhibition type result was “Competitive” on KLK6 (KLK6, Boc-QAR-AMC, competitive/noncompetitive by Dixon method) and “Competitive” on plasmin (plasmin, Boc-QAR-AMC, competitive/noncompetitive by Dixon method). In addition, the Ki at KLK6 (KLK6, substrate Boc-QAR-AMC, Dixon method) amounted to 4.44 µM; on plasmin (plasmin, substrate Boc-QAR-AMC, Dixon method), 14.4 µM. Further, the “Inhibition type (reversibility)” value is listed as “reversible” at KLK6 (KLK6, dilution method) and “reversible” at plasmin (plasmin, dilution method). For the same compound, the “Concentrations at which toxicity is exhibited” value in data set [2] (oligodendrocyte line) is “above 10 μM”.

Take `Cl.NCc1ccc(NC(=O)c2ccc3ccccc3c2O)cc1` [Compound 2, N-(4-(Aminomethyl)phenyl)-1-hydroxy-2-naphthamide hydrochloride]: the results for the “% cell survival” value in data set [1] (10 μM), in data set [1] (25 μM) and in data set [1] (second statement printed as 25 μM (presumably 50 μM)) were over 80%, over 90% and over 90%, respectively. In addition, the figures for the inhibition at 10 µM against KLK1, at KLK6 and at plasmin were 47.7%, 77.2% and 97.4%, respectively. For the same compound, on KLK1, the 50% inhibitory concentration (IC50) entry is “ni”. The “Cytotoxicity (Hoechst staining relative to basal control)” value in data set [2] (all concentrations tested) is on record as “not cytotoxic”.

Turning to `NCc1ccc(NC(=O)c2cc3ccccc3cc2O)cc1` [Compound 3, N-(4-(Aminomethyl)phenyl)-3-hydroxy-2-naphthamide hydrochloride], the results for the inhibition at 10 µM on KLK1 and at plasmin were 77% and 81%, respectively.

For `Cc1ccc(C(=O)Nc2ccc(CN)cc2)c(O)c1.Cl` [Compound 4, N-(4-(Aminomethyl)phenyl)-4-methyl-2-hydroxybenzamide hydrochloride], the “% cell survival” value in data set [1] (10 μM) is reported as over 80%; in data set [1] (25 μM), over 90%. In addition, the results for the inhibition at 10 µM at KLK1, at KLK6 and at plasmin were 61.7%, 68.8% and 54.3%, respectively. The IC50 entry at plasmin (setting [3]) is “ni”. Moreover, the Cytotoxicity result in data set [2] (between 2 and 12 μM) is reported as “does not exhibit any toxicity”.

Consider `COc1ccc2c(O)c(C(=O)Nc3ccc(CN)cc3)ccc2c1` [Compound 5, N-(4-(Aminomethyl)phenyl)-6-methoxy-1-hydroxy-2-naphthamide hydrochloride], for which the inhibition at 10 µM against KLK1 amounted to 46.5%; at plasmin it was 100%.

As to `CC(C)c1ccc(C(=O)Nc2ccc(CN)cc2)c(O)c1` [Compound 6, N-(4-(Aminomethyl)phenyl)-4-isopropyl-2-hydroxybenzamide hydrochloride], the inhibition at 10 µM was found to be 57.7% against KLK1, 84.7% at KLK6 and 70.2% at plasmin.

For the origin of these results see patent US11541023B2, “Compounds and compositions for the treatment of neurodegenerative and inflammatory diseases” (SORBONNE UNIVERSITE, priority 2018, dated 2023).
